Reference: patent US20220062233A1 (The Board of Trustees of the Leland Stanford Junior …, priority 2018, published 2022)

Experiments:
[1] = biological target: T1, interaction between Supt4h and NGN (subunit of Supt5h) (Homo sapiens, UniProt O00267+P63272); test: Split Gaussia luciferase complementation assay (M2-8 Luciferase); assay type: cell-based; conditions: M2-8 cells
T1 construct: expressed in transfected cells
Method: A. Split Gaussia Luciferase Complementation Assay […]
i: pNBR-X1-Supt4-Gluc1 and pNEBR-X1-NGN-Gluc2
The HA-Supt4h and Flag-NGN fragments are amplified by PCR using the plasmid pHA-Supt4h-YC and pFlag-NGN-YN and sub-cloned individually into pcDNA3.1-Gluc1 and pcDNA3.1-Gluc2 (described in “A highly sensitive protein-protein interaction assay based on Gaussia luciferase” published at Nat Methods. 2006 December; 3(12):977-9. Epub 2006 Nov. 12). Then HA-Supt4h-Gluc1 and Flag-NGN-Gluc2 are amplified by PCR and inserted to pNEBR-X1-Hygro (New England BioLabs), which contain RheoSwitch responsive element under the control of RheoSwitch ligand. […]
ii: pNEBR-X1-Supt4h-G1-NGN-G2
PCR products containing the sequence from 5XRE to polyA in pNEBR-X1-NGN-G2 are inserted to pNEBR-X1-Supt4h-G1 at Pcil site to generate Supt4h-G1 and NGN-G2 bidirectional under their own RheoSwitch responsive element and polyA in the same plasmid. […]
b. Stable Cloned Cell Line i: 293-R1 is a cloned cell line which is engineered to constitutively express RSL1 receptor/activator by transfecting HEK 293 cells with pNEBR-R1 plasmid (New England BioLabs) and selected with blasticidin. […]
ii: M2-8 is a cloned 293-R1 cell which can inducibly express pNEBR-X1-Supt4h-G1-NGN-G2 by addition of RSL1. Two point mutations ([…] and M110I) are introduced to the GL1 and GL2 for better stability according to “A high-throughput cell-based Gaussia luciferase reporter assay for identifying modulators of fibulin-3 secretion” published in J Biomol Screen. 2013 July; 18(6):647-58. The cell line is selected by hygromycin. […]
c. Cell Culture and Transfection Condition
All the HEK-293 cells and derivative clones are maintained in DMEM containing 10% FBS plus corresponding antibiotics (250 μg/ml hygromycin B, 10 μg/ml blasticidin or both) at 37° C., 5% CO2. All the transfections are done by using Lipofectamine 2000 (Invitrogen) according to the manufacturer's instructions. […]
d. Bioluminescence Assay from Cell Lysates
Plasmids harboring the Gluc1 and Gluc2 are co-transfected in a 1:1 ratio into 293-R1 cells plated on tissue culture treated 24-well plates using Lipofectamine 2000 according to the manufacturer's instructions. For stable M2-8 cells, the cells are directly plated into 96-well or 384-well white plates. Twenty-four hours later, RheoSwitch ligand with or without test compound is added to the cells for induction/drug treatment. After 24 hr, the cells are washed with PBS and the plate was stored at −20° C. overnight. Lysis buffer [30 mM Tris-HCl (pH 8.0) 5 mM NaCl, 0.1% Triton X-100] with 10 μg/ml native coelenterazine (Nanolight Technology) is then added to the cells at room temperature for one hour in the dark. After shaking for about 1 min, 40 μl of cell lysate are transferred to a white 96-well plate. For M2-8 in white micro plate, no transfer is needed. Signal intensities (integrated 100 ms) were read on Tecan Infinite M200 or M1000.
The split Gaussia luciferase complementation assay measures the interaction between Sup4h and NGN. NGN is the subunit of Supt5h that binds to Supt4h.

M2-8 cells = test: M2-8 Cell viability Assay; assay type: cell-based; conditions: at the concentration of 1000 nM

| SMILES | IC50 [1] | M2-8 Cell viability (M2-8 cells) |
| --- | --- | --- |
| CC1(C)CCC(NCc2ccccc2)c2[nH]c3ccc(Br)cc3c21 (centres unmarked) [Compound 16] | > 1 µM | + (cell viability is greater than 50% at the concentration of 1000 nM) |
| C(#CC1CC1)c1ccc2[nH]c3c(c2c1)CCC[C@H]3NCc1ccccc1 [Compound 34, (R)—N-benzyl-6-(cyclopropylethynyl)-2,3,4,9-tetrahydro-1H-carbazol-1-amine] | > 1 µM | + (cell viability is greater than 50% at the concentration of 1000 nM) |
| CCc1ccc2[nH]c3c(c2c1)CCC[C@H]3NCc1ccccc1 [Compound 6] | 0.301 to 1 µM | + (cell viability is greater than 50% at the concentration of 1000 nM) |
| CC(C)(O)c1ccc(C(CO)N[C@@H]2CCCc3c2[nH]c2ccc(Br)cc32)cc1 (mixture of isomers) [Compound 51, 2-(4-(1-(((R)-6-bromo-2,3,4,9-tetrahydro-1H-carbazol-1-yl)amino)-2-hydroxyethyl)phenyl) propan-2-ol] | 0.301 to 1 µM | + (cell viability is greater than 50% at the concentration of 1000 nM) |
| Cn1c2c(c3cc(Br)ccc31)CCCC2NCc1ccccc1 (centres unmarked) [Compound 18] | > 1 µM | + (cell viability is greater than 50% at the concentration of 1000 nM) |
| CC(C)(O)c1ccc(C(CF)N[C@@H]2CCCc3c2[nH]c2ccc(Br)cc32)cc1 (single isomer, unassigned) [Compound 54] | ≤ 0.1 µM | + (cell viability is greater than 50% at the concentration of 1000 nM) |
| CN(C)c1ccc(CN[C@@H]2CCCc3c2[nH]c2ccc(Br)cc32)cc1 [Compound 29, (R)-6-bromo-N-(4-(dimethylamino)benzyl)-2,3,4,9-tetrahydro-1H-carbazol-1-amine] | 0.101 to 0.3 µM | + (cell viability is greater than 50% at the concentration of 1000 nM) |
| OCc1ccc(CN[C@@H]2CCCc3c2[nH]c2ccc(Br)nc32)s1 [Compound 67] | ≤ 0.1 µM | + (cell viability is greater than 50% at the concentration of 1000 nM) |
| c1ccc(CN[C@@H]2CCCc3c2[nH]c2ccc(-c4ccccc4)cc32)cc1 [Compound 8, (R)—N-benzyl-6-phenyl-2,3,4,9-tetrahydro-1H-carbazol-1-amine] | > 1 µM | + (cell viability is greater than 50% at the concentration of 1000 nM) |
| OCc1cccc(CN[C@@H]2CCCc3c2[nH]c2ccc(Br)cc32)c1 [Compound 57, (R)-(3-(((6-bromo-2,3,4,9-tetrahydro-1H-carbazol-1-yl)amino)methyl)phenyl)methanol] | ≤ 0.1 µM | + (cell viability is greater than 50% at the concentration of 1000 nM) |
| COCC(N[C@@H]1CCCc2c1[nH]c1ccc(Br)cc21)c1ccc(CN2CCN(C(C)=O)CC2)cc1 (some centres unmarked) [Compound 62] | 0.101 to 0.3 µM | + (cell viability is greater than 50% at the concentration of 1000 nM) |
| CC(=O)c1ccc2[nH]c3c(c2c1)CCC[C@H]3NCc1ccccc1 [Compound 46, (R)-1-(1-(benzylamino)-2,3,4,9-tetrahydro-1H-carbazol-6-yl)ethan-1-one] | 0.301 to 1 µM | + (cell viability is greater than 50% at the concentration of 1000 nM) |
| OCCOCc1ccc(CN[C@@H]2CCCc3c2[nH]c2ccc(Br)nc32)cc1 [Compound 64] | 0.101 to 0.3 µM | + (cell viability is greater than 50% at the concentration of 1000 nM) |
| CC(=O)N1CCN(Cc2ccc(CN[C@@H]3CCCc4c3[nH]c3ccc(Br)cc43)cc2)CC1 [Compound 73] | 0.101 to 0.3 µM | + (cell viability is greater than 50% at the concentration of 1000 nM) |
| Cn1cncc1CN[C@@H]1CCCc2c1[nH]c1ccc(Br)cc21 [Compound 35, (R)-6-bromo-N-((1-methyl-1H-imidazol-5-yl)methyl)-2,3,4,9-tetrahydro-1H-carbazol-1-amine] | 0.301 to 1 µM | + (cell viability is greater than 50% at the concentration of 1000 nM) |
| CC(C)(O)c1ccc(C(CF)N[C@@H]2CCCc3c2[nH]c2ccc(Br)cc32)cc1 (single isomer, unassigned) [Compound 55] | ≤ 0.1 µM | + (cell viability is greater than 50% at the concentration of 1000 nM) |
| Brc1ccc2[nH]c3c(c2c1)CCC[C@H]3NCc1ccc(CN2CCOCC2)cc1 [Compound 72] | ≤ 0.1 µM | + (cell viability is greater than 50% at the concentration of 1000 nM) |
| C=C(C)c1ccc(CN[C@@H]2CCCc3c2[nH]c2ccc(Br)cc32)cc1 [Compound 47, (R)-6-bromo-N-(4-(prop-1-en-2-yl)benzyl)-2,3,4,9-tetrahydro-1H-carbazol-1-amine] | 0.101 to 0.3 µM | + (cell viability is greater than 50% at the concentration of 1000 nM) |
| c1ccc(CN[C@@H]2CCCc3c2[nH]c2ccc(-c4cn[nH]c4)cc32)cc1 [Compound 11, (R)—N-benzyl-6-(1H-pyrazol-4-yl)-2,3,4,9-tetrahydro-1H-carbazol-1-amine] | > 1 µM | + (cell viability is greater than 50% at the concentration of 1000 nM) |
| Brc1ccc2[nH]c3c(c2c1)CCC[C@H]3NCc1ccc2ccccc2c1 [Compound 20, (R)-6-bromo-N-(naphthalen-2-ylmethyl)-2,3,4,9-tetrahydro-1H-carbazol-1-amine] | 0.101 to 0.3 µM | + (cell viability is greater than 50% at the concentration of 1000 nM) |
| Brc1ccc2[nH]c3c(c2c1)CCC[C@H]3NCc1ccc(N2CCCC2)cc1 [Compound 22, (R)-6-bromo-N-(4-(pyrrolidin-1-yl)benzyl)-2,3,4,9-tetrahydro-1H-carbazol-1-amine] | 0.101 to 0.3 µM | + (cell viability is greater than 50% at the concentration of 1000 nM) |
| Oc1cccc(-c2ccc3[nH]c4c(c3c2)CCC[C@H]4NCc2ccccc2)c1 [Compound 9, (R)-3-(1-(benzylamino)-2,3,4,9-tetrahydro-1H-carbazol-6-yl)phenol] | 0.301 to 1 µM | + (cell viability is greater than 50% at the concentration of 1000 nM) |
| Brc1ccc2[nH]c3c(c2c1)CCC[C@H]3NCc1ccc(I)cc1 [Compound 40, (R)-6-bromo-N-(4-iodobenzyl)-2,3,4,9-tetrahydro-1H-carbazol-1-amine] | 0.101 to 0.3 µM | + (cell viability is greater than 50% at the concentration of 1000 nM) |
| CC(C)(OCCO)c1ccc(CN[C@@H]2CCCc3c2[nH]c2ccc(Br)cc32)cc1 [Compound 56, (R)-2-((2-(4-(((6-bromo-2,3,4,9-tetrahydro-1H-carbazol-1-yl)amino)methyl)phenyl)propan-2-yl)oxy)ethan-1-ol] | ≤ 0.1 µM | + (cell viability is greater than 50% at the concentration of 1000 nM) |
| OCC#Cc1ccc2[nH]c3c(c2c1)CCC[C@H]3NCc1ccccc1 [Compound 7, (R)-3-(1-(benzylamino)-2,3,4,9-tetrahydro-1H-carbazol-6-yl)prop-2-yn-1-ol] | 0.301 to 1 µM | + (cell viability is greater than 50% at the concentration of 1000 nM) |
| COc1ccccc1CN[C@@H]1CCCc2c1[nH]c1ccc(Br)cc21 [Compound 23, (R)-6-bromo-N-(2-methoxybenzyl)-2,3,4,9-tetrahydro-1H-carbazol-1-amine] | 0.301 to 1 µM | + (cell viability is greater than 50% at the concentration of 1000 nM) |
| OCCc1ccc2[nH]c3c(c2c1)CCC[C@H]3NCc1ccccc1 [Compound 12, (R)-2-(1-(benzylamino)-2,3,4,9-tetrahydro-1H-carbazol-6-yl)ethan-1-ol] | > 1 µM | + (cell viability is greater than 50% at the concentration of 1000 nM) |
| COCC(N[C@@H]1CCCc2c1[nH]c1ccc(Br)cc21)c1ccc(CN2CCOCC2)cc1 (some centres unmarked) [Compound 61] | 0.101 to 0.3 µM | + (cell viability is greater than 50% at the concentration of 1000 nM) |
